# How the values were obtained:
# [1] = biological target: T1, dopamine receptor D1 (Homo sapiens, UniProt P21728); assay: DMR desensitization assay, HEK293-D1, probe dopamine; format: cell-based; conditions: 100 μM DK
# T1 construct: expressed in transfected cells; host or cells: HEK293-D1
# Description: DMR assays were performed using an Epic® BT system (Corning, NY, USA). All used cell lines were directly seeded in Epic 384-well biosensor microplates with a seeding density of 25,000 cells per well. After being cultured for about 22 h, the cells formed a monolayer with a confluency of about 95 % in the cell culture medium. Then the cells were manually washed using assay buffer (1 × HBSS buffer, 10 mM HEPES, pH = 7.4) and maintained in 30 μL of the assay buffer for 1 h. All samples were dissolved in DMSO and diluted freshly with the assay buffer containing 0.1 % BSA.
# The receptor selectivity was evaluated against a set of G protein-coupled receptors (GPCRs), including opioid receptor (Delta/Kappa/NOP), dopamine receptor (D1/D2), orphan receptor (GPR35), adrenergic receptor (α2A/β2), serotonin receptor (5HT2A), histamine receptor (H1) and cannabinoid receptor (CB1). Following a 1-hour pretreatment with DK, a 2-min baseline was established before introducing probes and monitoring DMR signals for another hour. The cells and probes were as follows: Delta, HEK293-Delta, SNC162; Kappa, HEK293-Kappa, ICI199441; NOP, HEK293-NOP, MCOPPB; D1, HEK293-D1, dopamine; D2, HEK293-D2, dopamine; GPR35, CHO-K1-hGPR35, zaprinast; 5HT2A, HEK293-5HT2A, 5-hydroxytryptamine; α2A, HEK293-α2A, L-Noradrenaline; β2, A431, isoprenaline; H1, A431, histamine; CB1, CHO-K1-CB1, CP 55940. […]
# [2] = system: C57BL/6 male mice; assay: Antinociceptive tolerance, repeated injection over 7 days, hot-plate assay; format: in vivo; conditions: DK 20 and 40 mg/kg daily over 7 days, compared with morphine 5 mg/kg
# Description: Subsequent tolerance assessment was conducted through a repeated-injection protocol employing the hot-plate assay. Mice were injected intraperitoneally (5 mL/kg) with the solvent mixture, morphine (5 mg/kg) or DK (20, 40 mg/kg) daily for a continuous seven-day period. The diminishment of the antinociception of drugs in the assay was employed to evaluate the tolerance, with latency measured one hour after drug administration throughout the week.
# [3] = system: C57BL/6 mice; assay: Acute toxicity study; format: in vivo; conditions: 200 mg/kg daily for 14 days
# Description: Sixteen C57BL/6 mice (25 ± 1 g, 8 males, 8 females) were used in acute toxicity studies. The mice were randomly divided into 2 groups (half male, half female each group) and treated with either solvent mixture (control) or 200 mg/kg DK (DK-treated) daily for 14 days. Throughout the study, the animals were monitored for motor activity, mortality, and body weight changes, which were recorded every other day.
# At the end of the experiment (24 h after final DK administration), blood samples were collected via direct heart puncture, allowed to clot at room temperature, and centrifuged at 3000 rpm for 15 min. Serum was separated and stored at […] for biochemical analysis. Liver and renal injury markers, including aspartate transaminase (AST), alanine transaminase (ALT), UREA, CREA, albumin (ALB), urine acid (UA) and Glucose (Glu), were measured using an automatic biochemical analyzer (Chemray 240, 420 and 800, Rayto, China).
# Following blood collection, the mice were sacrificed, and the heart, liver, spleen, lung and kidney were excised. These tissues were fixed in 4 % paraformaldehyde (PFA), dehydrated gradually using ethanol (50–100 %), and embedded in paraffin after clearing with xylene. Sections ([…] thick) were stained with hematoxylin and eosin (HE) for examination.
# T1 sequence (P21728 whole entry): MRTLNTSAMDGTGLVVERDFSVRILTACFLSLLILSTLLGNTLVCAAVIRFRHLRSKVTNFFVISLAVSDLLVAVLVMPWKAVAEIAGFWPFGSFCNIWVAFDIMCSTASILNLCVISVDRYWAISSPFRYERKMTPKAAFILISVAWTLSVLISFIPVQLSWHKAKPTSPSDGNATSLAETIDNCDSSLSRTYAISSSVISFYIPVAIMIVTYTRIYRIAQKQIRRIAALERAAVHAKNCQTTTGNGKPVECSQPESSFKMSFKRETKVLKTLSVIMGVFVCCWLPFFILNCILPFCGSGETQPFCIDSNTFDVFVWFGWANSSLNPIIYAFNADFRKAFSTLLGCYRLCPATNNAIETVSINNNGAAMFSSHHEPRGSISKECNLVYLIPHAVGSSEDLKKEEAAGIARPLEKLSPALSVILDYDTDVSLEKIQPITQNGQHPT
smiles,measurement,setting,value
C=CC12CN(C)C3CC14c1ccccc1NC4C1CC2C3CO1 (stereo not drawn) [DK],reduction of probe DMR response (desensitization),[1],almost unable to reduce the response
same,antinociceptive tolerance,[2],no antinociceptive tolerance was observed
same,body weight gain,[3],no significant differences between DK-treated and control groups
same,"organ coefficients (heart, liver, spleen, lung, kidney)",[3],comparable between the two groups
same,serum biochemical indicators and histological analysis of major organs (HE staining),[3],no significant structural or biochemical differences
same,visible abnormalities of major organs,[3],No visible abnormalities were detected in the major organs
